{"source": "paper PMC13249053", "about": "“Mechanism of auranofin toxicity: Inhibition of tetrahydrobiopterin metabolism” (Toxicology and applied pharmacology, 2025)", "key": {"[1]": {"target": "T1, sepiapterin reductase (SPR) (Homo sapiens, UniProt P35270)", "T1 construct": "endogenous in cells; host or cells: HaCaT, Jurkat, BeWo, SKNMC, CX-1", "T1 sequence (P35270 whole entry)": "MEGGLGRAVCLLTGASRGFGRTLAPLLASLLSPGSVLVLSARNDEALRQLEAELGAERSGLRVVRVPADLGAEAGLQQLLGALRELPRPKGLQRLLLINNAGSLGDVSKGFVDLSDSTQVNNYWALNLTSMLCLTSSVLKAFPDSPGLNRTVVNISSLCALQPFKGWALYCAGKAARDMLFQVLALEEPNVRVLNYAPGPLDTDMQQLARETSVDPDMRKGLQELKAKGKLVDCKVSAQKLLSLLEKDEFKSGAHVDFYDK", "assay": "SPR enzyme activity in HaCaT cell lysates (BH2 formation from sepiapterin, HPLC)", "format": "biochemical", "details": "BH2 formation from sepiapterin by HPLC, read-out: IC50, inhibition of SPR in HaCaT cell lysates", "procedure": "(§1) The growth medium was then removed and the cells incubated with growth medium containing 100 μM sepiapterin. […] BH2 and BH4 were then analyzed on a Jasco high-performance liquid chromatography system (Easton, MD) fitted with a Maxsil-10 C18 column (250 × 4 mm; Phenomenex, Torrance, CA). […] Cell viability following drug treatments was greater than 95 %.\nFig. 4. Effects of auranofin on sepiapterin reductase (SPR) enzyme activity in HaCaT lysates. Lysates were assayed for SPR enzyme activity in control reaction mixes or reaction mixes containing increasing concentrations of auranofin (left panel). SPR activity was determined by decreases in BH2 formation from sepiapterin as measured by HPLC (right panel)."}, "SPR [2]": {"target": "T2, SPR (Mus musculus, UniProt Q64105)", "T2 construct": "endogenous in cells; host or cells: RAW264.7", "T2 sequence (Q64105 whole entry)": "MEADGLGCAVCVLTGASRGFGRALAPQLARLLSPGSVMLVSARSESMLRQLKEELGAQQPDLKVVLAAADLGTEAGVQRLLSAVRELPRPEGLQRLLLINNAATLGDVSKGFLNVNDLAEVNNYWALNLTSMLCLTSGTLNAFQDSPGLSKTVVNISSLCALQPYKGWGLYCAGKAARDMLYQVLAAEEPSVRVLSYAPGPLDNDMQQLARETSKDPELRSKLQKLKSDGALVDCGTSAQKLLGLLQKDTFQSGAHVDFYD", "assay": "Cellular SPR activity: BH2 formation from sepiapterin in the presence of methotrexate, RAW264.7 cells", "format": "cell-based", "details": "RAW264.7 (mouse macrophage); with methotrexate", "procedure": "as §1"}, "SPR [3]": {"target": "SPR (Homo sapiens, UniProt P35270)", "sequence (P35270 whole entry)": "as the sequence (P35270 whole entry) above", "assay": "Chemical (menadione) redox cycling by recombinant SPR, superoxide anion formation", "format": "biochemical", "parameters": "made in house", "details": "acetylated cytochrome c reduction at 550 nm, pH 7.8, read-out: IC50, inhibition of chemical redox cycling (superoxide anion production) by recombinant SPR", "procedure": "Sepiapterin reductase activity was assayed by measuring decreases in sepiapterin absorbance at 420 nm as described by Kato ([Kato, 1971]) with some modifications. Briefly, standard reaction mixes contained 100 mM potassium phosphate buffer, pH 7.0, 100 μM NADPH, 50 μM sepiapterin and 1 μg of enzyme protein in a final volume of 0.2 ml. Changes in absorbance of sepiapterin were monitored using a Spectramax M5 microplate reader (Molecular Devices, Sunnyvale, CA). […] Chemical redox cycling by SPR was assayed by measuring the formation of superoxide anion in the presence of menadione as previously described ([Yang et al., 2013]). […] Superoxide anion was measured spectrophotometrically by the reduction of acetylated cytochrome c at 550 nm. DHFR activity was measured as previously described ([Whitsett et al., 2013]) with some modifications. […] Enzyme activity was monitored by decreases in absorbance of NADPH at 340 nm using a microplate reader. […]\nFig. 5. […] SPR was measured in enzyme assays by decreases in sepiapterin absorbance at 420 nm as described in the Materials and Methods. DHFR activity in enzyme assays was measured by decreases in absorbance of NADPH at 340 nm. […] Redox cycling was measured spectrophotometrically by the reduction of acetylated cytochrome c at 550 nm during the formation of superoxide anion in enzyme assays in the presence of 100 μM menadione."}, "cells": {"test_system": "cells", "assay": "Cell viability (alamarBlue) following drug treatments", "details": "cells pretreated with auranofin and/or methotrexate for 2 h, then sepiapterin 3 h"}, "DHFR": {"target": "T3, DHFR (Homo sapiens, UniProt P00374)", "T3 sequence (P00374 1-187)": "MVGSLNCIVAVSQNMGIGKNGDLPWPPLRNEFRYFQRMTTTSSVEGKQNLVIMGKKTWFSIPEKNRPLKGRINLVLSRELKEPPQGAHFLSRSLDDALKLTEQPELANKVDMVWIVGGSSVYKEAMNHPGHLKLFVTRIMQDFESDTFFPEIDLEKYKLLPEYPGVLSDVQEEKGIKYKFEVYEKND", "assay": "Cellular DHFR activity: BH4 formation from BH2, human cell lines", "format": "cell-based", "parameters": "endogenous in cells; host or cells: HaCaT, Jurkat, BeWo, SKNMC, CX-1", "procedure": "Metabolic products of sepiapterin (BH2 and BH4) in intact cells and cell lysates were measured using HPLC as previously described ([Ferre and Naylor, 1988]) with some modifications ([Yang et al., 2013]; [Yang et al., 2015]). Briefly, cells in six-well culture dishes were grown until 60–70 % confluent (~1 × 10^6 cells/well). The growth medium was then removed and the cells incubated with growth medium containing 100 μM sepiapterin. After 3 h, cells were harvested, centrifuged (1500 g, 10 min), and pellets suspended in 200 μl of lysis buffer (50 mM Tris-HCl, pH 7.4, 137 mM NaCl, 0.5 % Nonidet P-40 (NP-40), 0.5 mM EDTA) for 20 min on ice. […] Thirty min later, 50 μl of 1 M H3PO4 was added to the supernatants and the precipitated proteins removed by centrifugation (15,000 g, 3 min). After standing for 10 min at room temperature, excess iodine was reduced by the addition of 25 μl of 57 mM ascorbic acid to the reaction mix. BH2 and BH4 were then analyzed on a Jasco high-performance liquid chromatography system (Easton, MD) fitted with a Maxsil-10 C18 column (250 × 4 mm; Phenomenex, Torrance, CA). Fluorescence was monitored using a Jasco FP-2020 spectrofluorometer with excitation and emission wavelengths set at 362 and 435 nm, respectively ([Yang et al., 2013]; [Yang et al., 2015]).\nFig. 8. […] DHFR enzyme activity in the cells was assayed by the metabolism of BH2 to BH4. Upper panels. HaCaT cells were treated with control medium or medium containing increasing concentrations of auranofin for 2 h followed by the addition of 200 μM BH2. After an additional 3 h, cells were rinsed with PBS and BH2 and BH4 analyzed by HPLC as described in the Materials and Methods. Lower panels. […] Cells were treated with the drug for increasing periods of time (0–2 h) followed by 200 μM BH2. After an additional 3 h, cells were rinsed with PBS and analyzed for BH2 and BH4 content."}}, "note": "Read-outs that look alike come from different tables or passages of the source."}
{"compound": "CC[PH](CC)(CC)[Au][S][C@@H]1O[C@H](COC(C)=O)[C@@H](OC(C)=O)[C@H](OC(C)=O)[C@H]1OC(C)=O", "note": "[auranofin, 2,3,4,6-tetra-O-acetyl-1-thio-β-D-glucopyranosato-S-triethyl phosphine gold]", "values": [{"measurement": "IC50", "setting": "[1]", "value": 1.8, "unit": "µM"}, {"measurement": "IC50", "setting": "SPR [2]", "value": "21.3 ± 1.58", "unit": "µM"}, {"measurement": "IC50", "setting": "SPR [3]", "value": 0.6, "unit": "µM"}, {"measurement": "cell viability following drug treatments", "setting": "cells", "value": "greater than 95%"}, {"measurement": "IC50", "setting": "DHFR; BeWo (human choriocarcinoma), BH4 formation from BH2, read-out: DHFR IC50, BeWo cells", "value": "3.9 ± 0.15", "unit": "µM"}, {"measurement": "IC50", "setting": "DHFR; CX-1 (human colon adenocarcinoma), BH4 formation from BH2, read-out: DHFR IC50, CX-1 cells", "value": "7.3 ± 0.1", "unit": "µM"}, {"measurement": "IC50", "setting": "DHFR; HaCaT (human keratinocytes), auranofin 2 h, then 200 μM BH2 3 h, read-out: DHFR IC50, HaCaT cells", "value": "6.3 ± 0.75", "unit": "µM"}, {"measurement": "time of pretreatment to maximal inhibition of cellular DHFR", "setting": "DHFR; HaCaT cells, 20 μM auranofin", "value": 2, "unit": "h"}, {"measurement": "IC50", "setting": "DHFR; Jurkat (human leukemia), BH4 formation from BH2, read-out: DHFR IC50, Jurkat cells", "value": "5.4 ± 0.07", "unit": "µM"}, {"measurement": "IC50", "setting": "DHFR; SKNMC (human neuroblastoma), BH4 formation from BH2, read-out: DHFR IC50, SKNMC cells", "value": "15.2 ± 0.53", "unit": "µM"}]}
